# In patent US20100168112A1, “2-Substituted and 4-substituted aryl nitrone compounds” (RENOVIS, INC., priority 2004, published 2010):
# Read-outs that look alike come from different tables or passages of the source.
# Legend:
# [1] = Microsomal stability in human liver microsomes; format: in vitro ADME; details: NADPH, 37° C.
# Protocol: Frozen Sprague-Dawley rat liver microsomes (RLM) were thawed on ice and gently mixed before use. The final reaction mixture consisted of a nitrone compound of this invention (at ˜500 ng/ml), 1 mM NADPH, and 0.5 mg/ml of RLM protein in 0.1 M PBS (pH7.4), with organic solvent concentration not exceeding 1% (v/v). Per set of incubations, a positive control compound was included. The mixture was first pre-incubated 3 to 5 minutes at 37° C. without NADPH, and the reaction was then initialized by the addition of NADPH and incubated at 37° C. for up to 30 minutes. An aliquot of the reaction mixture was sampled at the initiation of the reaction and at designated time after reaction started. The drawn samples were quenched with acetonitrile, diluted with mobile phase to ensure the detection of test article in the linear range, and analyzed by LC/MS/MS. Half-life or percentage of remaining nitrone compound was calculated using standard methods. A similar method, or a slight variation of it, was used to test the stability of nitrones in human liver microsomes (HLM).
# [2] = Solubility measurement at pH 7.4; format: physicochemical; details: aqueous buffer, thermodynamic from solid, phosphate buffer pH 7.4, room temperature
# Protocol: Nitrone compounds (>3 mg) of this invention were mixed with a phosphate buffer at pH 7.4 to make a >0.3 mg/mL mixture. The mixture was vortexed for more than 2 hours and equilibrated over 12 hours at room temperature. The equilibrated mixture was used to saturate a 0.45 μm Tuffryn syringe filter. After saturating, the remainder of the mixture was filtered through the saturated filter. The filtrate was diluted by 1, 10, 100, and 1000 fold and analyzed using a LC/MS/MS method with standard curve ranging from 1 to 1000 ng/mL.
# [3] = DPPH free radical-scavenging/antioxidant assay; format: biochemical; details: 50 μM DPPH in 80% methanol; 24 h time point; read-out: EC50 (concentration at which a compound reduces by 50% the peak absorbance of DPPH at 520 nm)
# Protocol: Nitrone compounds of the present invention were tested for their free-radical scavenging/antioxidant activity in an in vitro assay that is accepted by those skilled in the art as a model for conditions involving the generation of free radicals. The assay is based on a reaction between a free-radical donor, 2,2-diphenyl-1-picrylhydrazyl (DPPH), and a radical scavenger/antioxidant to be tested for free-radical scavenging activity. Upon donation of the free-radical electron to the purported radical scavenger, the peak visible absorbance of DPPH (515-520 nm) decreases so that optical density readings at this part of the visual spectrum reflect the progression of the following reaction:
# where AH is a hypothetical radical scavenger/antioxidant. The assay is based on a protocol originally detailed in Brand-Williams, W. et al., 1995, Use of a Free Radical Method to Evaluate Antioxidant Activity, Lebensm. Wiss. Technol., 28:25-30, with further modifications described in L. R. Fukumoto and G. Mazza, 2000, Assessing Antioxidant and Prooxidant Activities of Phenolic Compounds, J. Agric. Food Chem., 48:3597-3604.
# The antioxidant assay was performed using Perkin-Elmer 96-well, clear-bottom, black-wall plates (ordered from E & K Scientific Products) and a Tecan Safire absorbance plate reader. The positive controls were Trolox (6-hydroxy-2,5,7,8-tetramethylchromane-2-carboxylic acid, Sigma-Aldrich), BHA (2(3)-tert-butylhydroquinone monomethyl ether, Sigma-Aldrich), PBN (C-(phenyl)-N-(tert-butyl)nitrone, Sigma-Aldrich) and S-PBN (C-(2-sulfophenyl)-N-(tert-butyl)nitrone, sodium salt, prepared according to E. G. Janzen and R. V. Shetty, 1979, Tetrahedron Lett., 35: 3229-32), and the negative control (i.e., vehicle) was DMSO. In brief, 2 μL of 100× DMSO stock of the desired final concentration of each control or nitrone compound to be tested in the same batch was added to a separate well. To each well was then added 198 μL of a freshly made 50 μM DPPH (Sigma-Aldrich) solution in 80% methanol using a multi-channel pipette. The absorbance was immediately read on the plate reader at 520 nm and thereafter read periodically to assess kinetics until all reactions reached completion (i.e., steady state). Since the steady-state point was 24 h, the assay results are shown from the 24 h time point. The absorbance at 520 nm (OD) was plotted versus the concentrations of the controls and nitrone compounds to assess dose-response and interpolate the EC50 values of the controls and test compounds.
# [4] = Pharmacokinetic evaluation following intravenous and oral administration in rats; format: in vivo; details: male, Sprague-Dawley; for Cmax / Tmax / bioavailability: 5 mg/kg; for Cmax: rat plasma; for Cmax / Tmax: oral gavage, 2 mg/mL at 2.5 mL/kg; for clearance / Vd / Tmax / bioavailability / half-life: plasma, rat; for clearance / Vd / half-life: 1 mg/kg; for clearance / Vd: intravenous administration, 1 mg/mL at 1.0 mL/kg; for clearance: read-out: CI (clearance) (converted); for Vd: read-out: Vd (volume of distribution); for bioavailability: po 2 mg/mL at 2.5 mL/kg vs iv 1 mg/mL at 1.0 mL/kg, dose-normalized, read-out: F (%) oral bioavailability; for half-life: intravenous, read-out: T1/2 elimination half life (converted)
# Protocol: Male Sprague-Dawley rats were given at least 24 hours acclimation before experiment initiation. During acclimation period, all animals received food and water ad libitum. However, food (not water) was removed from the animal's cages up to 12 hours before initiation of the experiment. During the first 4 hours of experimentation, the animals received only water ad libitum. Two to three animals for iv and three animals for oral administration were tested. For iv formulation nitrone compounds of this invention were dissolved (1 mg/mL) in a mixture of 5% dimethyl acetamide (v/v), 0 to 4% Tween 80 (v/v), 10 to 40% PEG 400 (v/v) and the rest percentage of water (v/v). For oral formulation nitrone compounds of this invention were dissolved (2 mg/mL) in a mixture of 4% of 10% Tween in water and 96% of 0.5% carboxymethyl cellulose (medium viscosity) in water; or 4% of 10% Tween in water, 48% of 0.5% carboxymethyl cellulose (medium viscosity) in water, and 48% of 0.5% Hydroxypropyl Methylcellulose/0.2% Sodium Lauryl Sulfate in water. These formulations were stored at 5° C. until the experiment. Formulations were then stir-mixed at least half an hour before dosing. Exactly 200 μL of each left-over formulation was diluted with CH3CN/H2O for concentration analysis. The animals were weighed before dosing. The body weight was used to calculate the true dose for each animal:
# IV dosing: • Dose volume (mL)=1.0 mL/kg The intravenous dose was administered through the jugular vein catheter or tail vein in less than 1 minute.
# PO dosing: • Dose volume (mL)=2.5 mL/kg The oral dose was administered by oral gavage.
# For IV dosing, blood samples were collected (using a pre-heparinized syringe) via the carotid artery or jugular vein catheter at t=2, 5, 15, 30, 60, 120, 180, 360, and 480 minutes post dosing. For PO dosing, blood samples were collected (using a pre-heparinized syringe) via the carotid artery or jugular vein catheter before dosing and at t=5, 15, 30, 60, 120, 180, 360, and 480 minutes post dosing. For some nitrone compounds a 1440 minutes (24 hours) sample was also taken for both IV and PO administrations. About 250 μL of blood was obtained at each time point from the animals. Equal volumes of 0.9% normal saline were replaced to prevent dehydration. The whole blood samples were maintained on ice until centrifugation. Blood samples were then centrifuged at 14,000 rpm for 10 minutes at 4° C. and the upper plasma layer transferred into a clean vial and stored at −80° C. The resulting plasma samples were then analyzed by mass spectroscopy using standard methods.
# All the samples from above assays were analyzed on a PE-Sciex API 3000 triple quadrupole with a Turbo Ion Spray source. Nitrone compounds of this invention were separated from the matrix via a linear gradient reverse-phase chromatography using a C18 column, such as Thermo BDS Hypersil C18 (100×4.6 mm, 5 micron particle, 120A pore size). The mobile Phases were:
# Nitrone compounds were detected by the mass spectrometer in the positive ion multiple reaction monitoring mode (MRM). For quantitative analysis, a standard curve was prepared by spiking a stock solution of the nitrone compound to the appropriate matrix to achieve a quantitation curve range and analyzed the standards in the same manner as the samples.
# Pharmacokinetic parameters of the aryl nitrone compounds were determined by a noncompartmental analysis using WinNonlin-Pro (Version 4.1, Pharsight Corporation). Average and standard deviation of the parameters were calculated using standard formulas in Microsoft Excel.
# [5] = read-out: Solubility @ pH 7.4 (μg/mL)
Structure (SMILES),% of Nitrone Remaining at 30 min (Human) [1] [%],solubility ([2]; read-out: Solubility @ pH 7.4) [µM],"solubility [2, 5] [µg/mL]",EC50 [3] [µM],Cmax [4] [ng/mL],clearance [4] [mL/min/kg],Vd [4] [L/kg],Tmax [4] [min],bioavailability [4] [%],half-life [4] [min]
O=S(=O)(c1ccccc1/C=[N+](\[O-])C1CCCCC1)N1CCOCC1 [Compound 36],24.2,584,206,> 1000,,,,,,
O=S(=O)(c1ccccc1/C=[N+](\[O-])Cc1ccccc1)N1CCOCC1 [Compound 37],65.4,5020,1810,100 to 500,,,,,,
"CN1CCN(S(=O)(=O)c2ccccc2/C=[N+](\[O-])C(C)(C)C)CC1 [Compound 38, N-tert-Butyl-C-[2-(4-methyl-piperazine-1-sulfonyl)phenyl]nitrone]",76.6,> 1860,> 632,> 1000,,,,,,
"CN1CCN(S(=O)(=O)c2ccccc2/C=[N+](\[O-])C2CCCCC2)CC1 [Compound 39, N-Cyclohexyl-C-[2-(4-methyl-piperazine-1-sulfonyl)phenyl]nitrone]",41.9,> 2630,> 962,> 1000,,,,,,
"CN1CCN(S(=O)(=O)c2ccccc2/C=[N+](\[O-])Cc2ccccc2)CC1 [Compound 40, N-Benzyl-C-[2-(4-methyl-piperazine-1-sulfonyl)phenyl]nitrone]",27.9,> 2280,> 851,> 1000,,,,,,
CN(c1ccccc1)S(=O)(=O)c1ccccc1/C=[N+](\[O-])C(C)(C)C [Compound 41],0,413,143,> 1000,,,,,,
"CC(C)(C)/[N+]([O-])=C/c1ccccc1S(=O)(=O)N1CCCc2ccccc21 [Compound 44, N-tert-Butyl-C-[2-(3,4-dihydro-2H-quinoline-1-sulfonyl)phenyl]nitrone]",0,156,58.1,> 1000,,,,,,
"O=S(=O)(c1ccccc1/C=[N+](\[O-])C1CCCCC1)N1CCCc2ccccc21 [Compound 45, N-Cyclohexyl-C-[2-(3,4-dihydro-2H-quinoline-1-sulfonyl)phenyl]nitrone]",0,3.5,1.42,> 1000,,,,,,
"O=S(=O)(c1ccccc1/C=[N+](\[O-])Cc1ccccc1)N1CCCc2ccccc21 [Compound 46, N-Benzyl-C-[2-(3,4-dihydro-2H-quinoline-1-sulfonyl)phenyl]nitrone]",0,5.26,2.14,> 1000,,,,,,

# Next, values leading:
% of Nitrone Remaining at 30 min (Human) [1] [%],solubility ([2]; read-out: Solubility @ pH 7.4) [µM],"solubility [2, 5] [µg/mL]",EC50 [3] [µM],Cmax [4] [ng/mL],clearance [4] [mL/min/kg],Vd [4] [L/kg],Tmax [4] [min],bioavailability [4] [%],half-life [4] [min],Structure (SMILES)
100,> 11300,> 2900,> 1000,4170,3.33,0.8,85.2,72.2,166,"CC(C)(C)/[N+]([O-])=C/c1cccnc1S(C)(=O)=O [Compound 73, N-tert-Butyl-C-(2-methanesulfonyl-pyridine-3-yl)nitrone]"
75.7,96,29.4,> 1000,12,376,10.7,11.4,9.4,19.2,"CC(C)(C)/[N+]([O-])=C/c1cc2ccccc2nc1S(C)(=O)=O [Compound 74, N-tert-Butyl-C-(2-methanesulfonyl-quinoline-3-yl)nitrone]"
95.1,2920,848,> 1000,1030,21.8,1.07,11.4,50.2,34.2,"CS(=O)(=O)c1ncccc1/C=[N+](\[O-])Cc1ccccc1 [Compound 75, N-Benzyl-C-(2-methanesulfonyl-pyridine-3-yl)nitrone]"
90.5,> 4070,> 1150,> 1000,,,,,,,"CS(=O)(=O)c1ncccc1/C=[N+](\[O-])C1CCCCC1 [Compound 76, N-Cyclohexyl-C-(2-methanesulfonyl-pyridine-3-yl)nitrone]"
